Test results reported in patent US20250051275A1, “PYRROLE DERIVATIVE OR PHARMACEUTICALLY OR SITOLOGICALLY ACCEPTABLE SALTS THEREOF, AND COMPOSITION FOR PREVENTION, AMELIORATION OR TREATMENT OF GASTROINTESTINAL DISORDERS COMPRISING SAME AS ACTIVE INGREDIENT” (HANA PHARM CO., LTD., priority 2021, published 2025).
Read-outs that look alike come from different tables or passages of the source.

Assays:
[1] = system: human gastric cancer cells (AGS Cells); test: MTS assay, inhibition of proliferation of human gastric cancer cells (AGS Cells); assay type: cell-based; settings: 48 hours
Procedure: To examine the effect of inhibiting the proliferation of the compounds indicated in the examples of the present invention on human gastric cancer cells (AGS Cells), MTS Assay experiments were in vitro performed. AGS cells were cultured in a 5% CO2 incubator at 37° C. by using RPMI 1640 medium containing 1% penicillin-streptomycin and 10% fetal bovine serum. The cells in culture were separated with using 0.25% Trypsin-0.02% EDTA every 3 to 4 days and subcultured.
For the experiment, the cultured cells were treated with 0.25% Trypsin-0.02% EDTA solution, the suspended cells were centrifuged at 1,200 rpm for 5 minutes, the supernatant was discarded, a culture medium was added thereto, and a cell suspension was made with the culture medium. Using a hemocytometer, 10,000 cells per well were dispensed into 96-well plates and cultured. After 24 hours, when the cells attached to the plate, the culture medium was discarded, and the cells were treated with new culture media prepared by concentration (test concentrations: 500 μm, 250 μm, 125 μm, 63 μm, 31 μm, 16 μm, 8 μm, 4 μm, and 2 μm) and cultured in a CO2 incubator for 48 hours. After treating with an MTS solution, the cells were incubated in a CO2 incubator for 1 hour, and the absorbance was measured at 490 nm by using a microplate reader device. The cell proliferation inhibition rate was expressed as IC50, which is 50% inhibition of cell proliferation, using GraphPad Prism 5.
In Table 2 below, the IC50 value is indicated as “+++” for 0 to 50 μM, “++” for 51 to 100 μM, and “+” for 101 to 400 μM.

[2] = target: proton pump (H+/K+-ATPase) (Sus scrofa (Pig), UniProt P19156); test: Inhibitory activity on proton pump (H+/K+-ATPase) activity; assay type: biochemical; settings: porcine gastric mucosal microsomes, 5 mM KCl, pH 6.4
Sequence of proton pump (H+/K+-ATPase) (P19156 2-1034): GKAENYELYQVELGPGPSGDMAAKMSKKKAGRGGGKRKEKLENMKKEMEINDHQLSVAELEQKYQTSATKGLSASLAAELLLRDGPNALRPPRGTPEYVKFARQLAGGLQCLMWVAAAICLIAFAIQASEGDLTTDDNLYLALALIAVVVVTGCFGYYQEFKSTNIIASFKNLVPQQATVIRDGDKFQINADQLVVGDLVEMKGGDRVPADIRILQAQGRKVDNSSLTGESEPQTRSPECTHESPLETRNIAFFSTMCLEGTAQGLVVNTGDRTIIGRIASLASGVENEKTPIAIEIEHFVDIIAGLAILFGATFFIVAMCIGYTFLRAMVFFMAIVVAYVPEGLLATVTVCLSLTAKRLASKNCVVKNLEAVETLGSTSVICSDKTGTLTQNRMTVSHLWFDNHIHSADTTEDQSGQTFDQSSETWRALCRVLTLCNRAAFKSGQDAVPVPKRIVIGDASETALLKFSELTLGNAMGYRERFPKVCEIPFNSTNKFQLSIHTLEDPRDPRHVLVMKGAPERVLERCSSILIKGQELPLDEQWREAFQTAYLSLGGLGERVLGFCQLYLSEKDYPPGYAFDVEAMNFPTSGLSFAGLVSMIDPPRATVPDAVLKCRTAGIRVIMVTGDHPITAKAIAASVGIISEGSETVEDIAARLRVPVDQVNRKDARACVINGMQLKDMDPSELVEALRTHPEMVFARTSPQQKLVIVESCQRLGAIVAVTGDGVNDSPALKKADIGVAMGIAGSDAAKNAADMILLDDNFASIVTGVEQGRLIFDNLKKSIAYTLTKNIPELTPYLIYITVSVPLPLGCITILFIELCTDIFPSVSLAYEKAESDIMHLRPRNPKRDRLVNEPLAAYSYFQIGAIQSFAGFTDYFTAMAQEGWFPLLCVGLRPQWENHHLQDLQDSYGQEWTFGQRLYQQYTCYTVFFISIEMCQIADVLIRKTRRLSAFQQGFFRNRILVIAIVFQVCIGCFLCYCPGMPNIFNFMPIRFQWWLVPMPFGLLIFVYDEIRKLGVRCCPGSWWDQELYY
Sequence of proton pump (H+/K+-ATPase) (P18434 whole entry partner): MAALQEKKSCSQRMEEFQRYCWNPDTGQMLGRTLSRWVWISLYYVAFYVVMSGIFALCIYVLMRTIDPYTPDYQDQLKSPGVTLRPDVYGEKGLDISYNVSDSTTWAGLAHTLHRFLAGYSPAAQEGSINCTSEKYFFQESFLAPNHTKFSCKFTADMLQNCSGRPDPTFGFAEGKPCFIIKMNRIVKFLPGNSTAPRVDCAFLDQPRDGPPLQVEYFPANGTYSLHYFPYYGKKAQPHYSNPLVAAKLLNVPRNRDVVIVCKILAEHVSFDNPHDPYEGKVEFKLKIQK
Procedure: The compounds indicated in the above examples were tested for their inhibitory activity on proton pump (H+/K+-ATPase) activity as follows by applying the method disclosed in the literature. According to the methods of Nobuyuki Takahashi and Yukinori Take [J Pharmacol Exp Ther. 2018 February; 364(2):275-286], the gastric mucosal microsome fraction was isolated from the porcine stomach. The stomach isolated from the pig was washed first with tap water, only the fundus was cut, and then washed (a second time) with cold PBS. The gastric mucosa was separated by scraping, homogenized with 250 mM sucrose solution, and centrifuged at 20,000 g at 4° C. for 30 minutes. Only the supernatant was centrifuged at 115,000 g at 4° C. for 30 minutes, and the precipitate was suspended in 250 mM sucrose solution, added to cover with 7% Ficoll solution, and centrifuged at 135,000 g at 4° C. for 60 minutes. The microsome fraction formed at the interface was recovered and suspended in 250 mM sucrose solution, and centrifuged at 135,000 g, 4° C. for 60 minutes, and the precipitate was dissolved in 0.9% NaCl. The isolated gastric mucosal microsome fraction was quantified by using the Bicinchoninic Acid (BCA) kit (Thermo).
60 μl of enzyme reaction solution (a test compound at a given concentration, […] of gastric mucosal microsomes, 3 mM of MgSO4, 5 mM of KCl, 40 mM of Tris-HCl pH 6.4, and 0.5 mM of adenosine triphosphate) was added to each well of a 96-well plate and reacted at 37° C. for 60 minutes, and 30 μl of 10% SIDS was added to stop the enzyme reaction. 200 μl of detection solution (in which 10% L-ascorbic acid with pH 5.0 was mixed with 35 mM of ammonium molybdate tetrahydrate/15 mM of zinc acetate with pH 5.0 at the ratio of 4:1) was added and reacted at 37° C. for 30 minutes, and the absorbance value was measured at 750 nm by using a microplate reader (MULTISKAN GO, Thermo). The inhibition rate of proton pump activity was expressed as I050, which is 50% inhibition of enzyme activity, by using GraphPad Prism 5. In Table 1 below, an I050 value of 100 nM or less is indicated by +++, an I050 value of 101 to 200 nM is indicated by ++, and an I050 value of above 200 nM is indicated by +.

[3] = Homo sapiens, read-out: Proliferation inhibitory effect of gastric cancer cells (IC50)
[4] = Homo sapiens, read-out: Proliferation inhibitory effect of gastric cancer cells (IC50, μM), class symbol
[5] = read-out: Proton pump inhibitory activity (IC50)
[6] = read-out: Proton pump inhibitory activity (IC50, nM), class symbol

| SMILES | IC50 [1, 3] | IC50 [1, 4] | IC50 [2, 5] | IC50 [2, 6] | also measured |
| --- | --- | --- | --- | --- | --- |
| N.N.[Cl][Pt][Cl] [Control Drug 3 (Cisplatin), diamminedichloridoplatinum(II), reference compound] |  |  |  |  | IC50 ([1]; read-out: Proliferation inhibitory effect of gastric cancer cells (IC50)): 19.2 µM; IC50 ([1]; read-out: Proliferation inhibitory effect of gastric cancer cells (IC50, μM), class symbol): < 50 µM |
| [2H]C([2H])([2H])NCc1cc(-c2ccccc2F)n(S(=O)(=O)c2ccc(Br)cc2)c1 [Example 5, N-((1-((4-bromophenyl)sulfonyl)-5-(2-fluorophenyl)-1H-pyrrol-3-yl)methyl)methan-d3-amine] |  |  | 36 nM | ≤ 100 nM |  |
| [2H]C([2H])([2H])NCc1cc(-c2cccc(F)c2)n(S(=O)(=O)c2ccc(Cl)cc2)c1 [Example 10, N-((1-((4-chlorophenyl)sulfonyl)-5-(3-fluorophenyl)-1H-pyrrol-3-yl)methyl)methan-d3-amine] |  |  | 60 nM | ≤ 100 nM |  |
| [2H]C([2H])([2H])NCc1cc(-c2ccc(F)cc2F)n(S(=O)(=O)c2ccc(Br)cc2)c1 [Example 13, N-((1-((4-bromophenyl)sulfonyl)-5-(2,4-difluorophenyl)-1H-pyrrol-3-yl)methyl)methan-d3-amine] | 14.2 µM | < 50 µM |  |  |  |
| [2H]C([2H])([2H])NCc1cc(-c2ccc(F)cc2F)n(S(=O)(=O)c2ccc(C)cc2)c1 [Example 16, N-((5-(2,4-difluorophenyl)-1-tosyl-1H-pyrrol-3-yl)methyl)methane-d3-amine] |  |  | 82 nM | ≤ 100 nM |  |
| [2H]C([2H])([2H])NCc1cc(-c2cccc(F)c2)n(S(=O)(=O)c2ccc(C#N)cc2)c1 [Example 22, 4-((2-(3-fluorophenyl)-4-(((methyl-d3)amino)methyl)-1H-pyrrol-1-yl)sulfonyl)benzonitrile] | 22.6 µM | < 50 µM |  |  |  |
| [2H]C([2H])([2H])NCc1cc(-c2ccc(F)cc2)n(S(=O)(=O)c2ccc(F)cc2)c1 [Example 24, N-((5-(4-fluorophenyl)-1-((4-fluorophenyl)sulfonyl)-1H-pyrrol-3-yl)methyl)methan-d3-amine] | 41.5 µM | < 50 µM |  |  |  |
| [2H]C([2H])([2H])NCc1cn(S(=O)(=O)c2cccnc2)c(-c2c(F)cc(F)cc2F)c1OC [Example 39, N-((4-methoxy-1-(pyridin-3-ylsulfonyl)-5-(2,4,6-trifluorophenyl)-1H-pyrrol-3-yl)methyl)methan-d3-amine] |  |  | 38 nM | ≤ 100 nM |  |

The next lines start with results.

| IC50 [1, 3] | IC50 [1, 4] | IC50 [2, 5] | IC50 [2, 6] | SMILES | also measured |
| --- | --- | --- | --- | --- | --- |
| 194 µM | 101 to 400 µM |  |  | COc1ccc2nc([S@@+]([O-])Cc3ncc(C)c(OC)c3C)[nH]c2c1 [Control Drug 2 (Esomeprazole), 6-methoxy-2-[(S)-(4-methoxy-3,5-dimethylpyridin-2-yl)methylsulfinyl]-1H-benzimidazole, reference compound] |  |
|  |  | 76 nM | ≤ 100 nM | [2H]C([2H])([2H])NCc1cc(-c2cccc(F)c2)n(S(=O)(=O)c2ccc(OC)cc2)c1 [Example 11, N-((5-(3-fluorophenyl)-1-((4-methoxyphenyl)sulfonyl)-1H-pyrrol-3-yl)methyl)methan-d3-amine] |  |
|  |  | 84 nM | ≤ 100 nM | [2H]C([2H])([2H])NCc1cc(-c2ccc(F)cc2F)n(S(=O)(=O)c2ccc(OC)cc2)c1 [Example 17, N-((5-(2,4-difluorophenyl)-1-((4-methoxyphenyl)sulfonyl)-1H-pyrrol-3-yl)methyl)methan-d3-amine] |  |
|  |  | 88 nM | ≤ 100 nM | [2H]C([2H])([2H])NCc1cn(S(=O)(=O)c2ccc(OC)nc2)c(-c2ccc(F)cc2F)c1OC [Example 37, N-((5-(2,4-difluorophenyl)-4-methoxy-1-((6-methoxypyridin-3-yl)sulfonyl)-1H-pyrrol-3-yl)methyl) methane-d3-amine] |  |
|  |  | 64 nM | ≤ 100 nM | [2H]C([2H])([2H])NCc1cn(S(=O)(=O)c2ccc(OC)nc2)c(-c2c(F)cc(F)cc2F)c1OC [Example 40, N-((4-methoxy-1-((6-methoxypyridin-3-yl)sulfonyl)-5-(2,4,6-trifluorophenyl)-1H-pyrrol-3-yl)methyl)methane-d3-amine] |  |
